Data on 8 compounds can be found in PubChem BioAssay (NCI).

Some test systems named below: UACC-62 melanoma; HS 578T breast; KM12 colon; M14 melanoma; SF-268 CNS; NCI-H23 lung; SK-OV-3 ovarian; DU-145 prostate; NCI-H522 lung; CAKI-1 renal.
Holding throughout (assay): NCI-60 cell line screen, 48 h

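These data come from cells grown in 96-well plates and exposed to compound for 48 hours at five concentrations. Here, GI50 denotes the concentration required for 50% inhibition of growth. At the TGI there is no net growth.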

As to `COc1cnc2c(c1)C(=O)c1c-2n(CCCn2ccnc2)c(=O)c2cc(Cl)ccc12`, the GI50 in the experiment on UACC-62 melanoma was 0.0283 µM; in the experiment with HS 578T breast, 11.4 µM; in the experiment on KM12 colon, 0.238 µM; with M14 melanoma it was 0.0282 µM; in the experiment on SF-268 CNS, 0.0343 µM; in the experiment with NCI-H23 lung, 0.0382 µM. Further, the GI50 is 0.0403 µM with SK-OV-3 ovarian, 0.0432 µM in the experiment with DU-145 prostate, 0.0276 µM with NCI-H522 lung and 0.0255 µM in the experiment on CAKI-1 renal. Moreover, the TGI with UACC-62 melanoma is 0.204 µM; in the experiment with HS 578T breast it was above 100 µM; in the experiment with KM12 colon, above 100 µM; in the experiment with M14 melanoma it was 0.162 µM; in the experiment on SF-268 CNS, above 100 µM; in the experiment with NCI-H23 lung it was 0.505 µM. Moreover, the TGI is 0.303 µM in the experiment on SK-OV-3 ovarian, above 100 µM in the experiment on DU-145 prostate, 10.1 µM with NCI-H522 lung and above 100 µM with CAKI-1 renal.
Consider `COC(=O)CCC(=O)c1c(C)[nH]c(/C=C2\N=C(c3ccc[nH]3)C=C2OC)c1C`, for which the GI50 is 1.37 µM in the experiment with UACC-62 melanoma; 1.35 µM in the experiment on HS 578T breast; 0.36 µM with KM12 colon; 0.431 µM with M14 melanoma; 1.03 µM in the experiment on SF-268 CNS; 1.79 µM in the experiment with NCI-H23 lung. Also, the GI50 in the experiment with SK-OV-3 ovarian was 6.16 µM; in the experiment on DU-145 prostate, 0.344 µM; in the experiment on NCI-H522 lung it was 1.13 µM; in the experiment on CAKI-1 renal it was 0.869 µM. For the same compound, the TGI with UACC-62 melanoma came out at 3.49 µM; in the experiment on HS 578T breast, 4.07 µM; in the experiment with KM12 colon, 1.72 µM; in the experiment with M14 melanoma, 1.91 µM; in the experiment with SF-268 CNS, 3.1 µM; in the experiment on NCI-H23 lung it was 4.7 µM. The TGI with SK-OV-3 ovarian turned out to be 13.8 µM; in the experiment with DU-145 prostate, 1.8 µM; in the experiment with NCI-H522 lung, 2.86 µM; in the experiment with CAKI-1 renal it was 2.95 µM.
For `COCCOC(=O)C1=C(C)NC2=C(C(=O)CC(c3ccccc3OC)C2)C1c1cccc(O)c1` (stereo not given), the GI50 with UACC-62 melanoma is 4.51 µM; with HS 578T breast, 2.04 µM; in the experiment with KM12 colon it was 11.5 µM; in the experiment on M14 melanoma it was 11.8 µM; with SF-268 CNS it was 15.8 µM; with NCI-H23 lung, 14.7 µM. In addition, the GI50 is 7.77 µM with SK-OV-3 ovarian, 23.5 µM in the experiment on DU-145 prostate, 6.47 µM in the experiment on NCI-H522 lung and 4.43 µM with CAKI-1 renal. The TGI in the experiment on UACC-62 melanoma is 29.3 µM; in the experiment with HS 578T breast it was above 26.2 µM; in the experiment on KM12 colon, 30 µM; in the experiment with M14 melanoma, 39.5 µM; with SF-268 CNS it was 53.4 µM; in the experiment with NCI-H23 lung it was 56.6 µM. The TGI was 32.5 µM with SK-OV-3 ovarian, above 91.9 µM with DU-145 prostate, 33.6 µM in the experiment on NCI-H522 lung and 31.3 µM in the experiment on CAKI-1 renal.
For `O=[N+]([O-])c1ccccc1N=Nc1c(O)[nH]c2ccccc12`, the TGI was above 100 µM with UACC-62 melanoma; above 100 µM with HS 578T breast; above 100 µM with KM12 colon; above 100 µM in the experiment on M14 melanoma; above 100 µM in the experiment with SF-268 CNS; 35.9 µM in the experiment on NCI-H23 lung. Also, the TGI in the experiment with SK-OV-3 ovarian was above 53.7 µM; in the experiment on DU-145 prostate, above 89.8 µM; with NCI-H522 lung it was above 100 µM; in the experiment with CAKI-1 renal, above 54.7 µM.
Take `CCCN(CCC)c1ccc(CO)c(C)c1`: the GI50 was 22.8 µM with UACC-62 melanoma; 42.2 µM in the experiment with HS 578T breast; above 100 µM in the experiment on KM12 colon; above 100 µM in the experiment with M14 melanoma; 63.7 µM with SF-268 CNS; 35.4 µM in the experiment with NCI-H23 lung. For the same compound, the GI50 in the experiment on SK-OV-3 ovarian is above 100 µM; in the experiment on DU-145 prostate it was above 100 µM; in the experiment with NCI-H522 lung, 19.3 µM; with CAKI-1 renal it was 38.8 µM. The TGI in the experiment with UACC-62 melanoma, in the experiment with HS 578T breast, with KM12 colon, in the experiment with M14 melanoma, with SF-268 CNS and with NCI-H23 lung was above 100 µM each time. Also, the TGI with SK-OV-3 ovarian is above 100 µM; with DU-145 prostate, above 100 µM; in the experiment on NCI-H522 lung, 60.5 µM; in the experiment with CAKI-1 renal it was above 100 µM.
Regarding `Cn1c(COC(=O)N2CCCCC2)nc2c(N3CCOCC3)nc(-c3ccccc3)nc21`, the GI50 with UACC-62 melanoma was 1.27 µM; in the experiment with HS 578T breast it was 0.698 µM; with KM12 colon it was 1.46 µM; in the experiment on M14 melanoma, 0.509 µM; with SF-268 CNS it was 1.33 µM; with NCI-H23 lung, 1.48 µM. The GI50 with SK-OV-3 ovarian was 2.64 µM; in the experiment with DU-145 prostate it was 1.01 µM; in the experiment with NCI-H522 lung, 0.406 µM; in the experiment with CAKI-1 renal it was 0.354 µM. The TGI was 2.54 µM in the experiment on UACC-62 melanoma; 2.91 µM with HS 578T breast; 3.22 µM with KM12 colon; 1.89 µM in the experiment on M14 melanoma; 2.71 µM in the experiment with SF-268 CNS; 3.11 µM in the experiment on NCI-H23 lung. For the same compound, the TGI with SK-OV-3 ovarian turned out to be 10.5 µM; in the experiment on DU-145 prostate it was 2.31 µM; in the experiment with NCI-H522 lung it was 1.76 µM; with CAKI-1 renal, 1.51 µM.
For the compound `ClCCN(CCCl)c1ccc(-n2cnc3c(Cl)ncnc32)cc1`, the GI50 with UACC-62 melanoma was 1.81 µM; with HS 578T breast it was 2.95 µM; in the experiment on KM12 colon, 6.16 µM; with M14 melanoma it was 1.96 µM; in the experiment on SF-268 CNS, 1.81 µM; in the experiment on NCI-H23 lung, 2.02 µM. Further, the GI50 with SK-OV-3 ovarian was 11 µM; with DU-145 prostate it was 1.88 µM; with NCI-H522 lung it was 3.84 µM; in the experiment with CAKI-1 renal, 0.697 µM. The TGI with UACC-62 melanoma turned out to be 3.35 µM; with HS 578T breast, 9.79 µM; in the experiment with KM12 colon, 19.5 µM; in the experiment on M14 melanoma it was 3.88 µM; in the experiment on SF-268 CNS, 3.73 µM; in the experiment with NCI-H23 lung, 3.79 µM. In addition, the TGI in the experiment on SK-OV-3 ovarian came to 22.9 µM; in the experiment on DU-145 prostate it was 3.59 µM; with NCI-H522 lung it was 14.9 µM; in the experiment on CAKI-1 renal, 2.05 µM.
In the case of `O=C(Nc1cc(C(F)(F)F)ccc1F)Nc1n[nH]c2ccccc12`, the GI50 in the experiment on UACC-62 melanoma, in the experiment on HS 578T breast, with KM12 colon, in the experiment with M14 melanoma, with SF-268 CNS and in the experiment with NCI-H23 lung was above 100 µM each time. Besides, the GI50 with SK-OV-3 ovarian, in the experiment with DU-145 prostate, with NCI-H522 lung and with CAKI-1 renal was above 100 µM in each case. Also, the TGI with UACC-62 melanoma, with HS 578T breast, in the experiment on KM12 colon, in the experiment on M14 melanoma, in the experiment with SF-268 CNS and in the experiment on NCI-H23 lung was above 100 µM each time. For the same compound, the TGI with SK-OV-3 ovarian, in the experiment with DU-145 prostate, in the experiment on NCI-H522 lung and in the experiment on CAKI-1 renal was above 100 µM in each case.
